In ChEMBL document CHEMBL4842340, “Development of Cagrilintide, a Long-Acting Amylin Analogue” (J Med Chem, 2021):
Values after ≈ are worked out from the molar mass of the structure shown. *1 amine or outer side, *2 acyl side, *3 side chain or, on linkers, in order; H or OH if unused. Where a SMILES comes first, the peptide text is derived from it. Bridges are numbered along the chain shown (N, C = ends). The star is where a group is joined. C20 diacid = O=C(O)CCCCCCCCCCCCCCCCCCC(=O)*; γGlu = O=C(O)[C@H](CCC(=O)[*:2])N[*:1]

How the values were obtained:
[1] = Solubility of the compound in lactate at pH 4 by UPLC analysis; assay type: physicochemical; conditions: lactate buffer
[2] = Solubility of the compound in bis-tris propane at pH 7 by UPLC analysis; assay type: physicochemical; conditions: bis-tris propane buffer
[3] = tested on: Rattus norvegicus; assay: Reduction in food intake in Sprague-Dawley rat at 30 nmol/kg, sc administered as single dose measured upto 24 hrs relative to control; assay type: functional; design: scale not given: the % may be the effect or the level left; conditions: time hrs <=24
[4] = Dose normalized AUC in Sprague-Dawley rat at 10 nmol/kg, iv measured up to 96 hrs by LC-MS analysis; assay type: ADME, organism-based; conditions: in vivo
[5] = organism: Homo sapiens; assay: Ratio of IC50 for displacement of [125I]-calcitonin from human calcitonin receptor expressed in tk-ts 13 cells to IC50 for displacement of [125I]-amylin from human AMY3R (CTR+RAMP3) expressed in BHK-13 cells; assay type: cell-based
[6] = organism: Rattus norvegicus; assay: Ratio of IC50 for displacement of [125I]-calcitonin from rat calcitonin receptor expressed in tk-ts 13 cells to IC50 for displacement of [125I]-amylin from rat AMY3R (CTR+RAMP3) expressed in BHK-13 cells; assay type: cell-based
[7] = Solubility of the compound in bis-tris propane at pH 7.5 by UPLC analysis; assay type: physicochemical; conditions: bis-tris propane buffer
[8] = Bioavailability in Sprague-Dawley rat at 10 nmol/kg, sc measured up to 96 hrs by LC-MS analysis; assay type: ADME, organism-based; conditions: in vivo
[9] = organism: Homo sapiens; assay: Ratio of EC50 for human calcitonin receptor expressed in BHK570 cells to EC50 for human AMY3R (CT+RAMP3) expressed in Hollex1 cells; assay type: cell-based
[10] = Agonist activity at rat calcitonin receptor expressed in BHK-13 cells assessed as increase in intracellular cAMP concentration incubated for 25 mins by CRE luciferase reporter gene assay; assay type: cell-based; conditions: BHK-13, 25 min
[11] = Agonist activity at human AMY3R (CT+RAMP3) expressed in Hollex1 cells incubated for 3 hrs by luminescence assay; assay type: cell-based; conditions: Hollex1, 3 h
[12] = Displacement of [125I]-amylin from rat AMY3R (CTR+RAMP3) expressed in BHK-13 cells measured after 120 mins by scintillation proximity assay; assay type: cell-based
[13] = Apparent volume of distribution in Sprague-Dawley rat at 10 nmol/kg, iv measured up to 96 hrs by LC-MS analysis; assay type: ADME, organism-based; conditions: in vivo, read-out: Vz
[14] = tested on: Rattus norvegicus; assay: Reduction in food intake in Sprague-Dawley rat at 3 nmol/kg, sc administered as single dose measured upto 24 hrs relative to control; assay type: functional; design: scale not given: the % may be the effect or the level left; conditions: time hrs <=24
[15] = target: Insulin (Homo sapiens) (UniProt P01308); assay: Effect on insulin (unknown origin) amyloid fibril formation assessed as peptide recovery in HEPES buffer at pH 7.5 measured after 45 hrs by thioflavin-T fluorescence assay relative to control
Insulin (Homo sapiens), sequence (P01308 whole entry): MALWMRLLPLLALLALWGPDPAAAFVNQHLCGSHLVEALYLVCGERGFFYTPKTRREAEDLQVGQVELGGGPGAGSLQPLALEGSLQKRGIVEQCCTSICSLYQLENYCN

[16] = Solubility of the compound in lactate at pH 3 by UPLC analysis; assay type: physicochemical; conditions: lactate buffer
[17] = Solubility of the compound in bis-tris propane at pH 6.5 by UPLC analysis; assay type: physicochemical; conditions: bis-tris propane buffer
[18] = organism: Rattus norvegicus; assay: Ratio of EC50 for rat calcitonin receptor expressed in BHK-13 cells to EC50 for rat AMY3R (CT+RAMP3) expressed in tk-ts13 cells; assay type: cell-based
[19] = Clearance in Sprague-Dawley rat at 10 nmol/kg, iv measured up to 96 hrs by LC-MS analysis; assay type: ADME, organism-based; conditions: in vivo
[20] = Half life in Sprague-Dawley rat at 10 nmol/kg, iv measured up to 96 hrs by LC-MS analysis; assay type: ADME, organism-based; conditions: in vivo
[21] = Displacement of [125I]-amylin from human AMY3R (CTR+RAMP3) expressed in BHK-13 cells measured after 120 mins by scintillation proximity assay; assay type: cell-based
[22] = target: Insulin (Homo sapiens) (UniProt P01308); assay: Effect on insulin (unknown origin) amyloid fibril formation assessed as lag time in glycyl-glycine buffer at pH 4 measured after 45 hrs by thioflavin-T fluorescence assay
[23] = target: Insulin (Homo sapiens) (UniProt P01308); assay: Effect on insulin (unknown origin) amyloid fibril formation assessed as lag time in HEPES buffer at pH 7.5 measured after 45 hrs by thioflavin-T fluorescence assay
[24] = Agonist activity at rat AMY3R (CT+RAMP3) expressed in tk-ts13 cells assessed as increase in intracellular cAMP level incuabted for 25 mins by CRE luciferase reporter gene assay; assay type: cell-based; conditions: tk-ts13, 25 min
[25] = Half life in Sprague-Dawley rat at 10 nmol/kg, sc measured up to 96 hrs by LC-MS analysis; assay type: ADME, organism-based; conditions: in vivo
[26] = Solubility of the compound in bis-tris propane at pH 8 by UPLC analysis; assay type: physicochemical; conditions: bis-tris propane buffer
[27] = Solubility of the compound in lactate at pH 5 by UPLC analysis; assay type: physicochemical; conditions: lactate buffer
[28] = Dose normalized AUC in Sprague-Dawley rat at 10 nmol/kg, sc measured up to 96 hrs by LC-MS analysis; assay type: ADME, organism-based; conditions: in vivo
[29] = target: Insulin (Homo sapiens) (UniProt P01308); assay: Effect on insulin (unknown origin) amyloid fibril formation assessed as peptide recovery in glycyl-glycine buffer at pH 4 measured after 45 hrs by thioflavin-T fluorescence assay relative to control; design: concentration or dose not given beside the values
[30] = tested on: Rattus norvegicus; assay: Reduction in food intake in Sprague-Dawley rat at 30 nmol/kg, sc administered as single dose measured after 24 to 48 hrs relative to control; assay type: functional; design: scale not given: the % may be the effect or the level left; conditions: time 24-48 hrs
[31] = Agonist activity at human calcitonin receptor expressed in BHK570 cells assessed as increase in intracellular cAMP concentration incubated for 3 hrs in absence of albumin by CRE luciferase reporter gene assay; assay type: cell-based; conditions: BHK570, 3 h
[32] = Displacement of [125I]-calcitonin from rat calcitonin receptor expressed in tk-ts 13 cells measured after 120 mins by scintillation proximity assay; assay type: cell-based; conditions: tk-ts13
[33] = Displacement of [125I]-calcitonin from human calcitonin receptor expressed in tk-ts 13 cells measured after 120 mins by scintillation proximity assay; assay type: cell-based; conditions: tk-ts13
[34] = tested on: Rattus norvegicus; assay: Reduction in food intake in Sprague-Dawley rat at 3 nmol/kg, sc administered as single dose measured after 24 to 48 hrs relative to control; assay type: functional; design: scale not given: the % may be the effect or the level left; conditions: time 24-48 hrs
[35] = Solubility of the compound in bis-tris propane at pH 6 by UPLC analysis; assay type: physicochemical; conditions: bis-tris propane buffer

Structure (SMILES): CC[C@H](C)[C@H](NC(=O)[C@@H]1CCCN1C(=O)CNC(=O)[C@H](Cc1ccccc1)NC(=O)[C@H](CC(N)=O)NC(=O)[C@H](CC(N)=O)NC(=O)[C@H](CO)NC(=O)[C@H](CO)NC(=O)[C@H](Cc1c[nH]cn1)NC(=O)[C@H](CCCNC(=N)N)NC(=O)[C@H](CC(C)C)NC(=O)[C@H](Cc1ccccc1)NC(=O)[C@H](CCC(=O)O)NC(=O)[C@H](C)NC(=O)[C@H](CC(C)C)NC(=O)[C@H](CCCNC(=N)N)NC(=O)[C@H](CCC(N)=O)NC(=O)[C@@H](NC(=O)[C@H](C)NC(=O)[C@@H]1CSSC[C@H](NC(=O)[C@H](CCCCN)NC(=O)CC[C@H](NC(=O)CCCCCCCCCCCCCCCCCCC(=O)O)C(=O)O)C(=O)N[C@@H](CC(N)=O)C(=O)N[C@@H]([C@@H](C)O)C(=O)N[C@@H](C)C(=O)N[C@@H]([C@@H](C)O)C(=O)N1)[C@@H](C)O)C(=O)N[C@@H](CC(C)C)C(=O)N1CCC[C@H]1C(=O)N1CCC[C@H]1C(=O)N[C@H](C(=O)N[C@@H](CC(N)=O)C(=O)N[C@H](C(=O)NCC(=O)N[C@@H](CO)C(=O)N[C@@H](CC(N)=O)C(=O)N[C@H](C(=O)N1CCC[C@H]1C(N)=O)[C@@H](C)O)C(C)C)[C@@H](C)O
- solubility [1]: 200 µM (≈ 882 µg/mL)
- solubility [2]: 200 µM (≈ 882 µg/mL)
- Activity [3]: 85%
- AUC/dose [4]: 266 kg·h/L
- Ratio IC50 [5]: 1
- Ratio IC50 [6]: 1
- solubility [7]: 200 µM (≈ 882 µg/mL)
- bioavailability [8]: 30%
- Ratio EC50 [9]: 1
- EC50 [10]: 0.287 nM
- EC50 [11]: 0.049 nM
- IC50 [12]: 0.52 nM
- Vd [13]: 0.109 L/kg
- Activity [14]: 40%
- Activity [15]: 76%
- solubility [16]: 200 µM (≈ 882 µg/mL)
- solubility [17]: 200 µM (≈ 882 µg/mL)
- Ratio EC50 [18]: 1
- clearance [19]: 3.77 mL/h/kg
- half-life [20]: 20 h
- IC50 [21]: 0.17 nM
- TIME [22]: 45 h
- TIME [23]: 41 h
- EC50 [24]: 0.348 nM
- half-life [25]: 27 h
- solubility [26]: 200 µM (≈ 882 µg/mL)
- solubility [27]: 200 µM (≈ 882 µg/mL)
- AUC/dose [28]: 87 kg·h/L
- Activity [29]: 96%
- Activity [30]: 84%
- EC50 [31]: 0.062 nM
- IC50 [32]: 0.681 nM
- IC50 [33]: 0.223 nM
- Activity [34]: 29%
- solubility [35]: 200 µM (≈ 882 µg/mL)

Structure (SMILES): CC[C@H](C)[C@H](NC(=O)[C@@H]1CCCN1C(=O)CNC(=O)[C@H](Cc1ccccc1)NC(=O)[C@H](CC(N)=O)NC(=O)[C@H](CC(N)=O)NC(=O)[C@H](CO)NC(=O)[C@H](CO)NC(=O)[C@H](Cc1c[nH]cn1)NC(=O)[C@H](Cc1cnc[nH]1)NC(=O)[C@H](CC(C)C)NC(=O)[C@H](Cc1ccccc1)NC(=O)[C@H](CCC(=O)O)NC(=O)[C@H](C)NC(=O)[C@H](CC(C)C)NC(=O)[C@H](CCCNC(=N)N)NC(=O)[C@H](CCC(N)=O)NC(=O)[C@@H](NC(=O)[C@H](C)NC(=O)[C@@H]1CSSC[C@H](NC(=O)[C@H](CCCCN)NC(=O)CC[C@H](NC(=O)CCCCCCCCCCCCCCCCCCC(=O)O)C(=O)O)C(=O)N[C@@H](CC(N)=O)C(=O)N[C@@H]([C@@H](C)O)C(=O)N[C@@H](C)C(=O)N[C@@H]([C@@H](C)O)C(=O)N1)[C@@H](C)O)C(=O)N[C@@H](CC(C)C)C(=O)N1CCC[C@H]1C(=O)N1CCC[C@H]1C(=O)N[C@H](C(=O)N[C@@H](CC(N)=O)C(=O)N[C@H](C(=O)NCC(=O)N[C@@H](CO)C(=O)N[C@@H](CC(N)=O)C(=O)N[C@H](C(=O)N1CCC[C@H]1C(N)=O)[C@@H](C)O)C(C)C)[C@@H](C)O ({C20 diacid-γGlu}-KCNTATCATQRLAEFLHHSSNNFGPILPPTNVGSNTP-NH2; disulfide 2-7)
- solubility [1]: 200 µM (≈ 878 µg/mL)
- solubility [2]: 200 µM (≈ 878 µg/mL)
- Ratio IC50 [5]: 1
- Ratio IC50 [6]: 1
- solubility [7]: 200 µM (≈ 878 µg/mL)
- Ratio EC50 [9]: 1
- EC50 [10]: 0.076 nM
- EC50 [11]: 0.061 nM
- IC50 [12]: 0.027 nM
- Activity [14]: 62%
- Activity [15]: 19%
- solubility [16]: 200 µM (≈ 878 µg/mL)
- solubility [17]: 200 µM (≈ 878 µg/mL)
- IC50 [21]: 0.186 nM
- TIME [22]: 45 h
- TIME [23]: 11 h
- EC50 [24]: 0.158 nM
- solubility [26]: 200 µM (≈ 878 µg/mL)
- solubility [27]: 200 µM (≈ 878 µg/mL)
- Activity [29]: 92%
- EC50 [31]: 0.052 nM
- IC50 [32]: 0.018 nM
- IC50 [33]: 0.115 nM
- Activity [34]: 74%
- solubility [35]: 200 µM (≈ 878 µg/mL)
